In US8487121B2, “Chromane derivatives as TRPV3 modulators” (Glenmark Pharmaceuticals S.A., priority 2007, dated 2013):

Target: T1, Human TRPV3 (Homo sapiens, UniProt Q8NET8)
T1 construct: expressed in transfected cells; host or cells: CHO cells (G-418 selected)
T1 sequence (Q8NET8 1-790): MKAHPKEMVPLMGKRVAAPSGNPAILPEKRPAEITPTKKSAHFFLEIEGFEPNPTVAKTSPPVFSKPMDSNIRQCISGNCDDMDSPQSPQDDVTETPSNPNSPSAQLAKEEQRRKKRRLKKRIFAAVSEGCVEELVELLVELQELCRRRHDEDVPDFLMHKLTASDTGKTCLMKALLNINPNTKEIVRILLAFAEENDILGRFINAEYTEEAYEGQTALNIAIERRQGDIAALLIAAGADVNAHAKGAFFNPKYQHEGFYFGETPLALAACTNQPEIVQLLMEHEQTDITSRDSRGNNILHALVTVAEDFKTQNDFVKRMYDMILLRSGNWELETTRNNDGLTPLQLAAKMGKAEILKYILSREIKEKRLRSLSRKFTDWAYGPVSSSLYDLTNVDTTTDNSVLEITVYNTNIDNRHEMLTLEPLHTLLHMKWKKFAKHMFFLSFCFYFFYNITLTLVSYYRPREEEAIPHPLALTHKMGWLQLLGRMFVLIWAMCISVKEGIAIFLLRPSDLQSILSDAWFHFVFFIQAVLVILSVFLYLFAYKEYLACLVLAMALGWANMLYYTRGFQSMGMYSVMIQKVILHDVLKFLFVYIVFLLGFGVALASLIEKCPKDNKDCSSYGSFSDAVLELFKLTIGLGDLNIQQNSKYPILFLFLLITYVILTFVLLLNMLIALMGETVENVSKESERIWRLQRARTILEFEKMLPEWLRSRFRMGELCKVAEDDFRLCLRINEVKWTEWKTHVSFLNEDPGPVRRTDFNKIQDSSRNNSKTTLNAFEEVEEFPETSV
Assay: 45Calcium uptake assay: inhibition of 2-APB induced cellular uptake of radioactive calcium
Type: cell-based
Conditions: human TRPV3 expressing CHO cells, 2-APB 500 μM; for inhibition at 1 µM: 1.0 μM compound, read-out: Percentage inhibition at 1.0 μM; for inhibition at 10 µM: 10.0 μM compound, read-out: Percentage inhibition at 10.0 μM
From the text: The illustrative examples of the present invention are screened for TRPV3 activity according to a modified procedure described in Toth, A. et al. Life Sciences (2003), 73, 487-498. The screening of the compounds can be carried out by other methods and procedures known to a person skilled in the art. Such screening methods may be found in Hu, H-Z., et al. J. Biol. Chem. (2004), 279, 35741-35748; Smith, G. D et al. Nature (2002), 418, 186-190 and Peier, A. M., et al. Science (2002), 296, 2046-2049.
Screening for TRPV3 Antagonist Using the ^45Calcium Uptake Assay:
The inhibition of TRPV3 receptor activation was followed as inhibition of 2-APB induced cellular uptake of radioactive calcium. Test compounds were dissolved in DMSO to prepare 20 mM stock and then diluted using plain medium with 0.1% BSA and 1.8 mM CaCl2 to get desired concentration. Final concentration of DMSO in the reaction was 0.5% (v/v). Human TRPV3 expressing CHO cells were grown in F-12 DMEM medium with 10% FBS, 1% penicillin-streptomycin solution, 400 μg/ml of G-418. Cells were seeded 24 h prior to the assay in 96 well plates so as to get ˜50,000 cells per well on the day of experiment. Cells were treated with test compounds for 10 minutes followed by addition of 2-APB at a final concentration of 500 μM and 5 μCi/ml ^45Ca^+2 for 4 minutes. Cells were washed and lysed using buffer containing 1% Triton X-100, 0.1% deoxycholate and 0.1% SDS. Radioactivity in the lysate was measured in Packardt Top count after addition of liquid scintillant.
Concentration response curves were plotted as a % of maximal response obtained in the absence of test antagonist. IC50 value was calculated from concentration response curve by nonlinear regression analysis using GraphPad PRISM software.
Percentage inhibition at concentrations of 1.0 μM and 10.0 μM are given in the table along with IC50 (nM) values for selected examples.

Structure (SMILES) | inhibition at 1 µM | inhibition at 10 µM | IC50
O=C(Cc1noc2ccccc12)N[C@@H]1CC2(CCC2)Oc2ccc(Cl)cc21 [Example 26] | 29.4% | 46.1% | –
O=C(Cc1noc2ccccc12)N[C@H]1CC2(CCC2)Oc2ccc(Cl)cc21 [Example 27] | 5.3% | 75.9% | –
O=C(CCc1ccccc1OC1CCCC1)NC1CC2(CCC2)Oc2ccc(Cl)cc21 (stereo not drawn) [Example 28, N-(6-Chloro-3,4-dihydrospiro[chromene-2,1′-cyclobutan]-4-yl)-3-(2-cyclopentyloxyphenyl)propanamide] | 58% | 84.3% | –
O=C(CCc1cccc(OC2CCCC2)c1)N[C@@H]1CC2(CCC2)Oc2ccc(Cl)cc21 [Example 29, N-[(4R)-6-chloro-3,4-dihydrospiro[chromene-2,1′-cyclobutan]-4-yl]-3-(3-cyclopentyloxy)phenyl propanamide] | 43.6% | 88.4% | –
O=C(CCc1cccc(OC2CCCC2)c1)N[C@H]1CC2(CCC2)Oc2ccc(Cl)cc21 [Example 30, N-[(4S)-6-chloro-3,4-dihydrospiro[chromene-2,1′-cyclobutan]-4-yl]-3-(3-cyclopentyloxy)phenylpropanamide] | 46.8% | 80.6% | –
O=C(CCc1ccccc1OC1CCCC1)N[C@@H]1CC2(CCC2)Oc2c(Cl)cccc21 [Example 31, N-1(4R)-(8-Chloro-3,4-dihydrospiro[chromene-2,1′-cyclobutan]-4-yl)-3-(2-cyclopentyloxy)phenyl propanamide] | 78.6% | 97.4% | 0.5 to 1 µM
O=C(CCc1ccccc1OC1CCCC1)N[C@H]1CC2(CCC2)Oc2c(Cl)cccc21 [Example 32] | 24.8% | 43.9% | –
O=C(CCc1ccccc1OC1CCCC1)N[C@H]1CC2(CCC2)Oc2cc(OCc3ccccc3)ccc21 [Example 33, 7-Benzyloxy-N-(3,4-dihydrospiro[chromene-2,1′-cyclobutan]-4-yl)-3-(2-cyclopentylxoyphenyl)propanamide] | 13.5% | 33.9% | –
CC(C)S(=O)(=O)Nc1ccccc1CCC(=O)NC1CC2(CCC2)Oc2ccc(Cl)cc21 (stereo not drawn) [Example 34, N-(6-Chloro-3,4-dihydrospiro[chromene-2,1′-cyclobutan]-4-yl)-3-{2-[(isopropylsulfonyl)amino]phenyl}propanamide] | 5.69% | 77.1% | –
O=C(CCc1ccccc1-c1ccccn1)NC1CC2(CCC2)Oc2ccc(Cl)cc21 (stereo not drawn) [Example 35, N-(6-Chloro-3,4-dihydrospiro[chromene-2,1′-cyclobutan]-4-yl)-3-(2-pyridin-2-ylphenyl) propanamide] | 44.8% | 97.6% | –
COc1cccc(CCC(=O)NC2CC3(CCC3)Oc3ccccc32)c1OC1CCCC1 (stereo not drawn) [Example 37, N-(3,4-Dihydrospiro[chromene-2,1′-cyclobutan]-4-yl)-3-(2-cyclopentyloxy-3-methoxy)phenylpropanamide] | 46.3% | 95.7% | 0.5 to 1 µM
COc1cccc(CCC(=O)NC2CC3(CCC3)Oc3ccc(Cl)cc32)c1OC (stereo not drawn) [Example 38, N-(6-Chloro-3,4-dihydrospiro[chromene-2,1′-cyclobutan]-4-yl)-3-(2,3-dimethoxy)-phenylpropanamide] | 23.8% | 82.7% | –
COc1cccc(CCC(=O)NC2CC3(CCC3)Oc3ccc(Cl)cc32)c1OC(C)C (stereo not drawn) [Example 39, N-(6-Chloro-3,4-dihydrospiro[chromene-2,1′-cyclobutan]-4-yl)-3-(2-isopropoxy-3-methoxy)phenylpropanamide] | 73.8% | 97.5% | 0.5 to 1 µM
COc1ccc(CCC(=O)NC2CC3(CCC3)Oc3ccc(Cl)cc32)cc1Cl (stereo not drawn) [Example 40, N-(6-Chloro-3,4-dihydrospiro[chromene-2,1′-cyclobutan]-4-yl)-3-(3-chloro-4-methoxy)phenylpropanamide] | 6.8% | 93.5% | –
COc1cccc(CCC(=O)NC2CC3(CCC3)Oc3ccc(Cl)cc32)c1OCC1CC1 (stereo not drawn) [Example 41, N-(6-Chloro-3,4-dihydrospiro[chromene-2,1′-cyclobutan]-4-yl)-3-(2-cyclopropylmethoxy-3-methoxy)phenylpropanamide] | 49% | 96.4% | 0.5 to 1 µM
COc1cccc(CCC(=O)N[C@@H]2CC3(CCC3)Oc3ccc(Cl)cc32)c1OC1CCCC1 [Example 42] | 47.2% | 95.1% | 0.5 to 1 µM
COc1cccc(CCC(=O)N[C@H]2CC3(CCC3)Oc3ccc(Cl)cc32)c1OC1CCCC1 [Example 43] | 64.6% | 91.7% | 0.5 to 1 µM

Continued, values first:

inhibition at 1 µM | inhibition at 10 µM | IC50 | Structure (SMILES)
50.8% | 88.8% | – | CCOc1cccc(CCC(=O)NC2CC3(CCC3)Oc3ccc(Cl)cc32)c1OC1CCCC1 (stereo not drawn) [Example 44, N-(6-Chloro-3,4-dihydrospiro[chromene-2,1′-cyclobutan]-4-yl)-3-(2-cyclopentyloxy-3-ethoxy)phenylpropanamide]
59.2% | 94.8% | 0.5 to 1 µM | COc1cccc(CCC(=O)NC2CC3(CCC3)Oc3cc(Cl)ccc32)c1OC1CCCC1 (stereo not drawn) [Example 45, N-(7-Chloro-3,4-dihydrospiro[chromene-2,1′-cyclobutan]-4-yl)-3-(2-cyclopentyloxy-3-methoxy)phenylpropanamide]
53.2% | 99.7% | 0.5 to 1 µM | CCOc1c(CCC(=O)NC2CC3(CCC3)Oc3c(Cl)cccc32)cccc1OC (stereo not drawn) [Example 46, N-(8-Chloro-3,4-dihydrospiro[chromene-2,1′-cyclobutan]-4-yl)-3-(2-ethoxy-3-methoxy)phenylpropanamide]
– | – | < 0.5 µM | COc1cccc(CCC(=O)N[C@@H]2CC3(CCC3)Oc3c(Cl)cccc32)c1OC1CCCC1 [Example 47]
– | – | 0.5 to 1 µM | COc1cccc(CCC(=O)N[C@H]2CC3(CCC3)Oc3c(Cl)cccc32)c1OC1CCCC1 [Example 48]
35.4% | 70.1% | – | COc1cccc(CCC(=O)NC2CC3(CCC3)Oc3cc(C)c(Cl)cc32)c1OC1CCCC1 (stereo not drawn) [Example 49, N-(6-Chloro-7-methyl-3,4-dihydrospiro[chromene-2,1′-cyclobutan]-4-yl)-3-(2-cyclo-pentyloxy-3-methoxy)phenylpropanamide]
52.8% | 77.6% | 0.5 to 1 µM | COc1cccc(CCC(=O)NC2CC3(CCC3)Oc3cccc(OCc4ccccc4)c32)c1OC1CCCC1 (stereo not drawn) [Example 50, N-(5-Benzyloxy-3,4-dihydrospiro[chromene-2,1′-cyclobutan]-4-yl)-3-(2-cyclopentyloxy-3-methoxy)phenylpropanamide]
37.1% | 86.7% | 1 to 2 µM | COc1cccc(CCC(=O)NC2CC3(CCC3)Oc3cccc(O)c32)c1OC1CCCC1 (stereo not drawn) [Example 51, N-(5-Hydroxy-3,4-dihydrospiro[chromene-2,1′-cyclobutan]-4-yl)-3-(2-cyclopentyloxy-3-methoxy)phenylpropanamide]
39.6% | 92.5% | – | COc1cccc(CCC(=O)NC2CC3(CCC3)Oc3cccc(OC)c32)c1OC1CCCC1 (stereo not drawn) [Example 52, N-(3,4-Dihydrospiro[chromene-2,1′-cyclobutan]-5-methoxy-4-yl)-3-(2-cyclopentyloxy-3-methoxy)phenylpropanamide]
